Assay results published in PubChem BioAssay (NCI).
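Assay format: 96-well plates, 48-hour exposure. Abbreviation: GI50, concentration required for 50% inhibition of growth. TGI is the concentration that stops growth completely.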

Assays:
Experiment in all cases: DTP human tumour cell line panel, 48 h
[1] = test system: 786-0 renal
[2] = test system: A498 renal
[3] = test system: A549 NSCLC
[4] = test system: ACHN renal
[5] = test system: BT-549 breast
[6] = test system: CAKI-1 renal
[7] = test system: CCRF-CEM leukemia
[8] = test system: COLO 205 colon
[9] = test system: DU-145 prostate
[10] = test system: EKVX NSCLC
[11] = test system: HCC-2998 colon
[12] = test system: HCT-116 colon
[13] = test system: HCT-15 colon
[14] = test system: HL-60(TB) leukemia
[15] = test system: HOP-62 NSCLC
[16] = test system: HS 578T breast
[17] = test system: HT29 colon
[18] = test system: IGROV1 ovarian
[19] = test system: K-562 leukemia
[20] = test system: KM12 colon
[21] = test system: LOX IMVI melanoma
[22] = test system: M14 melanoma
[23] = test system: MALME-3M melanoma
[24] = test system: MDA-MB-231 breast
[25] = test system: MDA-MB-435
[26] = test system: NCI-H226 lung
[27] = test system: NCI-H23 lung
[28] = test system: NCI-H522 lung
[29] = test system: NCI/ADR-RES ovarian
[30] = test system: OVCAR-3 ovarian
[31] = test system: OVCAR-4 ovarian
[32] = test system: OVCAR-5 ovarian
[33] = test system: OVCAR-8 ovarian
[34] = test system: PC-3 prostate
[35] = test system: RPMI-8226 leukemia
[36] = test system: RXF 393 renal
[37] = test system: SF-295 CNS
[38] = test system: SF-539 CNS
[39] = test system: SK-MEL-2 melanoma
[40] = test system: SK-MEL-28 melanoma
[41] = test system: SK-OV-3 ovarian
[42] = test system: SN12C renal
[43] = test system: SNB-75 CNS
[44] = test system: SR leukemia
[45] = test system: SW-620 colon
[46] = test system: T-47D breast
[47] = test system: TK-10 renal
[48] = test system: U251 CNS
[49] = test system: UACC-257 melanoma
[50] = test system: UACC-62 melanoma
[51] = test system: UO-31 renal
[52] = test system: HOP-92 NSCLC
[53] = test system: MCF7 breast
[54] = test system: MOLT-4 leukemia
[55] = test system: NCI-H460 lung
[56] = test system: SF-268 CNS
[57] = test system: SK-MEL-5 melanoma
[58] = test system: SNB-19 CNS

SMILES: CC(=O)/C=C/C1=C(c2cccs2)c2ccccc2CC1
- GI50 [1]: 49.4 µM
- TGI [1]: > 100 µM
- GI50 [2]: 23.7 µM
- TGI [2]: 47.9 µM
- GI50 [3]: 37.3 µM
- TGI [3]: > 100 µM
- GI50 [4]: 22.5 µM
- TGI [4]: 57.5 µM
- GI50 [5]: 32.6 µM
- TGI [5]: > 100 µM
- GI50 [6]: 41 µM
- TGI [6]: > 100 µM
- GI50 [7]: 25.3 µM
- TGI [7]: 54.2 µM
- GI50 [8]: 23.1 µM
- TGI [8]: 49 µM
- GI50 [9]: 42.8 µM
- TGI [9]: > 100 µM
- GI50 [10]: 35.1 µM
- TGI [10]: > 100 µM
- GI50 [11]: 25.8 µM
- TGI [11]: 59.8 µM
- GI50 [12]: 37.6 µM
- TGI [12]: > 100 µM
- GI50 [13]: 21.8 µM
- TGI [13]: 52.7 µM
- GI50 [14]: 20.7 µM
- TGI [14]: > 100 µM
- GI50 [15]: 33.8 µM
- TGI [15]: 88 µM
- GI50 [16]: 29.5 µM
- TGI [16]: 98.6 µM
- GI50 [17]: 26.9 µM
- TGI [17]: 68.4 µM
- GI50 [18]: 19.8 µM
- TGI [18]: 49.7 µM
- GI50 [19]: 32.5 µM
- TGI [19]: > 100 µM
- GI50 [20]: 25.2 µM
- TGI [20]: 56.2 µM
- GI50 [21]: 17.8 µM
- TGI [21]: 34.2 µM
- GI50 [22]: 18.8 µM
- TGI [22]: 41.7 µM
- GI50 [23]: 28.3 µM
- TGI [23]: 54.9 µM
- GI50 [24]: 23.3 µM
- TGI [24]: 59.1 µM
- GI50 [25]: 25.8 µM
- TGI [25]: 51.3 µM
- GI50 [26]: 28.7 µM
- TGI [26]: 93.5 µM
- GI50 [27]: 34.3 µM
- TGI [27]: > 100 µM
- GI50 [28]: 25.1 µM
- TGI [28]: 66.8 µM
- GI50 [29]: 27.3 µM
- TGI [29]: 81.7 µM
- GI50 [30]: 29.7 µM
- TGI [30]: 63.6 µM
- GI50 [31]: 25.1 µM
- TGI [31]: 64.9 µM
- GI50 [32]: 60.7 µM
- TGI [32]: > 100 µM
- GI50 [33]: 38.9 µM
- TGI [33]: > 100 µM
- GI50 [34]: 40.7 µM
- TGI [34]: > 100 µM
- GI50 [35]: 19.9 µM
- TGI [35]: 47.6 µM
- GI50 [36]: 31.8 µM
- TGI [36]: 78.9 µM
- GI50 [37]: 22.5 µM
- TGI [37]: 54.5 µM
- GI50 [38]: 27.5 µM
- TGI [38]: 81 µM
- GI50 [39]: 25.6 µM
- TGI [39]: 71.2 µM
- GI50 [40]: 22.4 µM
- TGI [40]: 52.2 µM
- GI50 [41]: 42 µM
- TGI [41]: > 100 µM
- GI50 [42]: 23.5 µM
- TGI [42]: 48.5 µM
- GI50 [43]: 25.6 µM
- TGI [43]: 68.1 µM
- GI50 [44]: 23.6 µM
- TGI [44]: 51.8 µM
- GI50 [45]: 33.9 µM
- TGI [45]: > 100 µM
- GI50 [46]: 23.7 µM
- TGI [46]: 53.5 µM
- GI50 [47]: 32 µM
- TGI [47]: > 100 µM
- GI50 [48]: 22.8 µM
- TGI [48]: 51.1 µM
- GI50 [49]: 19.7 µM
- TGI [49]: 41.7 µM
- GI50 [50]: 17.6 µM
- TGI [50]: 33.2 µM
- GI50 [51]: 25.7 µM
- TGI [51]: 86.4 µM

SMILES: O=C1c2ccn(CCCCN3CCCCC3)c2C(=O)c2c1c(O)c1ccccc1c2O
- GI50 [1]: 5.28 µM
- GI50 [2]: 15.3 µM
- TGI [2]: 35.1 µM
- GI50 [3]: 10.3 µM
- TGI [3]: 33.9 µM
- GI50 [4]: 18.7 µM
- TGI [4]: 38.5 µM
- GI50 [5]: 17.7 µM
- TGI [5]: 38.3 µM
- GI50 [6]: 1.63 µM
- TGI [6]: 3.83 µM
- GI50 [7]: 1.95 µM
- TGI [7]: 4.61 µM
- GI50 [8]: 5.8 µM
- TGI [8]: > 52.2 µM
- GI50 [9]: 14.1 µM
- TGI [9]: 30.3 µM
- GI50 [10]: 15.2 µM
- TGI [10]: 36.1 µM
- GI50 [11]: 2.95 µM
- TGI [11]: 9.98 µM
- GI50 [12]: 7.76 µM
- TGI [12]: > 53.9 µM
- GI50 [13]: 2.74 µM
- TGI [13]: 7.98 µM
- GI50 [14]: 24.5 µM
- TGI [14]: > 100 µM
- GI50 [15]: 13.4 µM
- TGI [15]: 35.4 µM
- GI50 [52]: 3.68 µM
- TGI [52]: 22.9 µM
- GI50 [16]: 27 µM
- TGI [16]: 65.1 µM
- GI50 [17]: 4.14 µM
- TGI [17]: > 100 µM
- GI50 [18]: 11.1 µM
- TGI [18]: > 100 µM
- GI50 [19]: 2.68 µM
- GI50 [20]: 8.55 µM
- TGI [20]: 27.5 µM
- GI50 [21]: 1.72 µM
- TGI [21]: 4.3 µM
- GI50 [22]: 2.46 µM
- TGI [22]: 9.7 µM
- GI50 [23]: 7.58 µM
- TGI [23]: 20.4 µM
- GI50 [53]: 14.2 µM
- TGI [53]: > 62.3 µM
- GI50 [25]: 2.19 µM
- TGI [25]: 5.27 µM
- GI50 [54]: 3.49 µM
- TGI [54]: > 100 µM
- GI50 [26]: 30 µM
- TGI [26]: > 73.7 µM
- GI50 [27]: 23.1 µM
- TGI [27]: > 48.3 µM
- GI50 [55]: 3.88 µM
- TGI [55]: 16.3 µM
- GI50 [28]: 11.1 µM
- TGI [28]: 56 µM
- GI50 [29]: 14.4 µM
- TGI [29]: 55.6 µM
- GI50 [30]: 10.5 µM
- TGI [30]: 41.9 µM
- GI50 [31]: 9.48 µM
- TGI [31]: > 61.1 µM
- GI50 [32]: 17.9 µM
- TGI [32]: > 46 µM
- GI50 [33]: 3.52 µM
- TGI [33]: > 100 µM
- GI50 [34]: 4.76 µM
- TGI [34]: 18.1 µM
- GI50 [35]: 2.74 µM
- TGI [35]: 9.29 µM
- GI50 [36]: 5.54 µM
- TGI [36]: 18 µM
- GI50 [56]: 14.9 µM
- TGI [56]: 42.7 µM
- GI50 [37]: 13.2 µM
- TGI [37]: 45.4 µM
- GI50 [38]: 6 µM
- TGI [38]: 42.1 µM
- GI50 [39]: > 100 µM
- TGI [39]: > 100 µM
- GI50 [40]: 3.73 µM
- TGI [40]: 44.2 µM
- GI50 [57]: 13.3 µM
- TGI [57]: 33.9 µM
- GI50 [41]: 15.8 µM
- TGI [41]: 43.4 µM
- GI50 [42]: 16.5 µM
- TGI [42]: 45 µM
- GI50 [58]: 19.1 µM
- TGI [58]: > 90.5 µM
- GI50 [43]: 8.45 µM
- TGI [43]: > 73.8 µM
- GI50 [45]: 3.18 µM
- TGI [45]: 10.6 µM
- GI50 [46]: 23.6 µM
- TGI [46]: > 59.6 µM
- GI50 [47]: 13.6 µM
- TGI [47]: 27.9 µM
- GI50 [48]: 6.16 µM
- GI50 [49]: 5.83 µM
- TGI [49]: 12.2 µM
- TGI [50]: 1.32 µM
- GI50 [51]: 20.9 µM
- TGI [51]: > 100 µM

SMILES: CCOC(=O)c1sc2nc(-c3ccccc3)nn2c1CBr
- TGI [1]: 2.95 µM
- TGI [3]: > 10 µM
- TGI [6]: 2.83 µM
- TGI [7]: 0.642 µM
- TGI [8]: 3.73 µM
- TGI [9]: > 10 µM
- TGI [10]: > 10 µM
- TGI [11]: > 10 µM
- TGI [14]: 1.34 µM
- TGI [15]: > 10 µM
- TGI [17]: 3.77 µM
- TGI [18]: > 10 µM
- TGI [19]: 1.96 µM
- TGI [20]: 4.14 µM
- TGI [21]: 3.17 µM
- TGI [22]: 2.85 µM
- TGI [23]: 4.94 µM
- TGI [53]: 3.78 µM
- TGI [24]: 3.69 µM
- TGI [54]: 1.18 µM
- TGI [27]: 3.78 µM
- TGI [33]: 4.03 µM
- TGI [34]: 4.16 µM
- TGI [35]: 4.25 µM
- TGI [36]: 4.07 µM
- TGI [56]: 4.19 µM
- TGI [37]: > 10 µM
- TGI [40]: 3.41 µM
- TGI [57]: 3.49 µM
- TGI [41]: > 10 µM
- TGI [42]: 3.21 µM
- TGI [43]: 3.69 µM
- TGI [44]: 1.51 µM
- TGI [45]: 3.88 µM
- TGI [46]: 5.71 µM
- TGI [47]: 4.47 µM
- TGI [49]: 3.92 µM
